Test results published in PubChem BioAssay (NCI).
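All cell lines were grown in 96-well plates and treated with compound for 48 hours. GI50: concentration for 50% inhibition of growth. TGI is the concentration that stops growth completely.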

Legend:
Assay in all cases: DTP human tumour cell line panel, 48 h; in the data active means GI50 below about 0.43 µM; inactive means the rest
BT-549 breast = system: BT-549 breast
HCC-2998 colon = system: HCC-2998 colon
COLO 205 colon = system: COLO 205 colon
SN12C renal = system: SN12C renal
SNB-75 CNS = system: SNB-75 CNS
PC-3 prostate = system: PC-3 prostate
UO-31 renal = system: UO-31 renal
NCI-H522 lung = system: NCI-H522 lung
M14 melanoma = system: M14 melanoma
NCI-H226 lung = system: NCI-H226 lung
OVCAR-8 ovarian = system: OVCAR-8 ovarian
MOLT-4 leukemia = system: MOLT-4 leukemia
DU-145 prostate = system: DU-145 prostate
A498 renal = system: A498 renal
HOP-62 NSCLC = system: HOP-62 NSCLC
IGROV1 ovarian = system: IGROV1 ovarian
OVCAR-5 ovarian = system: OVCAR-5 ovarian
SK-MEL-5 melanoma = system: SK-MEL-5 melanoma
MDA-MB-231 breast = system: MDA-MB-231 breast
MCF7 breast = system: MCF7 breast
EKVX NSCLC = system: EKVX NSCLC
SNB-19 CNS = system: SNB-19 CNS
NCI/ADR-RES ovarian = system: NCI/ADR-RES ovarian
HT29 colon = system: HT29 colon
SR leukemia = system: SR leukemia
HCT-116 colon = system: HCT-116 colon
TK-10 renal = system: TK-10 renal
K-562 leukemia = system: K-562 leukemia
HL-60(TB) leukemia = system: HL-60(TB) leukemia
T-47D breast = system: T-47D breast
SF-295 CNS = system: SF-295 CNS
HOP-92 NSCLC = system: HOP-92 NSCLC
RPMI-8226 leukemia = system: RPMI-8226 leukemia
UACC-62 melanoma = system: UACC-62 melanoma
NCI-H460 lung = system: NCI-H460 lung
ACHN renal = system: ACHN renal
HCT-15 colon = system: HCT-15 colon
MALME-3M melanoma = system: MALME-3M melanoma
SF-539 CNS = system: SF-539 CNS
RXF 393 renal = system: RXF 393 renal
SK-MEL-28 melanoma = system: SK-MEL-28 melanoma
SW-620 colon = system: SW-620 colon
A549 NSCLC = system: A549 NSCLC
MDA-MB-435 = system: MDA-MB-435
SK-OV-3 ovarian = system: SK-OV-3 ovarian
UACC-257 melanoma = system: UACC-257 melanoma
OVCAR-4 ovarian = system: OVCAR-4 ovarian
NCI-H23 lung = system: NCI-H23 lung
KM12 colon = system: KM12 colon
LOX IMVI melanoma = system: LOX IMVI melanoma
U251 CNS = system: U251 CNS
CAKI-1 renal = system: CAKI-1 renal
786-0 renal = system: 786-0 renal
OVCAR-3 ovarian = system: OVCAR-3 ovarian
CCRF-CEM leukemia = system: CCRF-CEM leukemia
SK-MEL-2 melanoma = system: SK-MEL-2 melanoma
SF-268 CNS = system: SF-268 CNS
HS 578T breast = system: HS 578T breast

O=[N+]([O-])c1cc([N+](=O)[O-])c(C(F)(F)F)cc1NN=C(c1ccc(O)cc1)c1ccc(O)cc1
5.33 µM: TGI (COLO 205 colon)
13.3 µM: TGI (UO-31 renal) | TGI (T-47D breast)
9.54 µM: TGI (786-0 renal)
39.7 µM: TGI (NCI-H522 lung)
3 µM: TGI (SK-MEL-5 melanoma)
4.6 µM: TGI (UACC-62 melanoma)
50 µM: TGI (OVCAR-5 ovarian)
12.7 µM: TGI (M14 melanoma) | TGI (A498 renal)
5.13 µM: TGI (NCI-H460 lung)
7.73 µM: TGI (MCF7 breast)
7.85 µM: TGI (KM12 colon)
12.3 µM: TGI (SW-620 colon)
65.4 µM: TGI (NCI/ADR-RES ovarian)
18.8 µM: TGI (HOP-92 NSCLC)
33.4 µM: TGI (TK-10 renal)
12.6 µM: TGI (RPMI-8226 leukemia)
19.2 µM: TGI (OVCAR-4 ovarian)
11.7 µM: TGI (HCT-15 colon) | TGI (U251 CNS)
6.11 µM: TGI (OVCAR-3 ovarian)
4.92 µM: TGI (MDA-MB-435)
9.41 µM: TGI (MDA-MB-231 breast)
42.8 µM: TGI (BT-549 breast)
11.8 µM: TGI (HL-60(TB) leukemia)
35.1 µM: TGI (MALME-3M melanoma)
5.99 µM: TGI (SK-MEL-2 melanoma)
13.8 µM: TGI (DU-145 prostate)
15.3 µM: TGI (CAKI-1 renal)
11.9 µM: TGI (HCT-116 colon)
14.6 µM: TGI (EKVX NSCLC) | TGI (SK-OV-3 ovarian)
16.8 µM: TGI (SNB-75 CNS)
31 µM: TGI (NCI-H23 lung)
7.66 µM: TGI (SF-268 CNS)
35.8 µM: TGI (HOP-62 NSCLC)
3.21 µM: TGI (LOX IMVI melanoma)
> 100 µM: TGI (OVCAR-8 ovarian)
14.4 µM: TGI (IGROV1 ovarian) | TGI (CCRF-CEM leukemia)
15.7 µM: TGI (K-562 leukemia)
4.47 µM: TGI (SK-MEL-28 melanoma)
4.45 µM: TGI (SF-539 CNS)
16.6 µM: TGI (SNB-19 CNS)
17.5 µM: TGI (UACC-257 melanoma)
23.7 µM: TGI (NCI-H226 lung)
12.1 µM: TGI (HT29 colon)
6.42 µM: TGI (SR leukemia)
13.4 µM: TGI (SN12C renal)
8.58 µM: TGI (HCC-2998 colon)
8.23 µM: TGI (ACHN renal)
8.47 µM: TGI (RXF 393 renal)
78 µM: TGI (PC-3 prostate)
3.81 µM: TGI (SF-295 CNS)
inactive: GI50 (BT-549 breast) 5 µM | GI50 (HCC-2998 colon) 3.2 µM | GI50 (COLO 205 colon) 2.15 µM | GI50 (SN12C renal) 3.3 µM | GI50 (SNB-75 CNS) 3.53 µM | GI50 (PC-3 prostate) 3.11 µM | GI50 (UO-31 renal) 3.15 µM | GI50 (NCI-H522 lung) 3.82 µM | GI50 (M14 melanoma) 3.18 µM | GI50 (NCI-H226 lung) 4.03 µM | GI50 (OVCAR-8 ovarian) 4.2 µM | GI50 (MOLT-4 leukemia) 1.8 µM | GI50 (DU-145 prostate) 3.79 µM | GI50 (A498 renal) 3.18 µM | GI50 (HOP-62 NSCLC) 3.51 µM | GI50 (IGROV1 ovarian) 3.79 µM | GI50 (OVCAR-5 ovarian) 11 µM | GI50 (SK-MEL-5 melanoma) 1.64 µM | GI50 (MDA-MB-231 breast) 3.11 µM | GI50 (MCF7 breast) 2.63 µM | GI50 (EKVX NSCLC) 2.75 µM | GI50 (SNB-19 CNS) 4.67 µM | GI50 (NCI/ADR-RES ovarian) 4.44 µM | GI50 (HT29 colon) 3.33 µM | GI50 (SR leukemia) 1.55 µM | GI50 (HCT-116 colon) 2.67 µM | GI50 (TK-10 renal) 6.06 µM | GI50 (K-562 leukemia) 2.42 µM | GI50 (HL-60(TB) leukemia) 3.12 µM | GI50 (T-47D breast) 2.74 µM | GI50 (SF-295 CNS) 1.57 µM | GI50 (HOP-92 NSCLC) 3.05 µM | GI50 (RPMI-8226 leukemia) 3.71 µM | GI50 (UACC-62 melanoma) 2.07 µM | GI50 (NCI-H460 lung) 2.05 µM | GI50 (ACHN renal) 2.41 µM | GI50 (HCT-15 colon) 2.84 µM | GI50 (MALME-3M melanoma) 4.72 µM | GI50 (SF-539 CNS) 2.01 µM | GI50 (RXF 393 renal) 2.64 µM | GI50 (SK-MEL-28 melanoma) 1.89 µM | GI50 (SW-620 colon) 3.44 µM | GI50 (A549 NSCLC) 2.98 µM | GI50 (MDA-MB-435) 1.92 µM | GI50 (SK-OV-3 ovarian) 4.25 µM | GI50 (UACC-257 melanoma) 4.29 µM | GI50 (OVCAR-4 ovarian) 3.25 µM | GI50 (NCI-H23 lung) 4.23 µM | GI50 (KM12 colon) 2.7 µM | GI50 (LOX IMVI melanoma) 1.57 µM | GI50 (U251 CNS) 2.92 µM | GI50 (CAKI-1 renal) 3.34 µM | GI50 (786-0 renal) 2.67 µM | GI50 (OVCAR-3 ovarian) 2.42 µM | GI50 (CCRF-CEM leukemia) 3.71 µM | GI50 (SK-MEL-2 melanoma) 2.56 µM | GI50 (SF-268 CNS) 2.63 µM
5.77 µM: TGI (MOLT-4 leukemia)
14.5 µM: TGI (A549 NSCLC)

COc1ccc(C(c2cc(OC)c(OC)c(OC)c2)n2cncn2)cc1O (stereo not drawn)
1.9 µM: TGI (HT29 colon)
0.957 µM: TGI (A498 renal)
> 100 µM: TGI (BT-549 breast) | TGI (HCC-2998 colon) | TGI (SN12C renal) | TGI (PC-3 prostate) | TGI (UO-31 renal) | TGI (M14 melanoma) | TGI (NCI-H226 lung) | TGI (OVCAR-8 ovarian) | TGI (MOLT-4 leukemia) | TGI (DU-145 prostate) | TGI (HOP-62 NSCLC) | TGI (IGROV1 ovarian) | TGI (OVCAR-5 ovarian) | TGI (MDA-MB-231 breast) | TGI (MCF7 breast) | TGI (EKVX NSCLC) | TGI (SNB-19 CNS) | TGI (NCI/ADR-RES ovarian) | TGI (HS 578T breast) | TGI (HCT-116 colon) | TGI (TK-10 renal) | TGI (K-562 leukemia) | TGI (SF-295 CNS) | TGI (HOP-92 NSCLC) | TGI (RPMI-8226 leukemia) | TGI (UACC-62 melanoma) | TGI (NCI-H460 lung) | TGI (ACHN renal) | TGI (HCT-15 colon) | TGI (RXF 393 renal) | TGI (SW-620 colon) | TGI (A549 NSCLC) | TGI (SK-OV-3 ovarian) | TGI (UACC-257 melanoma) | TGI (OVCAR-4 ovarian) | TGI (NCI-H23 lung) | TGI (KM12 colon) | TGI (LOX IMVI melanoma) | TGI (U251 CNS) | TGI (CAKI-1 renal) | TGI (786-0 renal) | TGI (CCRF-CEM leukemia) | TGI (SK-MEL-2 melanoma) | TGI (SF-268 CNS)
1.54 µM: TGI (COLO 205 colon)
active: GI50 (COLO 205 colon) 0.332 µM | GI50 (NCI-H522 lung) 0.395 µM | GI50 (M14 melanoma) 0.374 µM | GI50 (A498 renal) 0.324 µM | GI50 (MCF7 breast) 0.347 µM | GI50 (HT29 colon) 0.33 µM | GI50 (HL-60(TB) leukemia) 0.261 µM | GI50 (SF-295 CNS) 0.325 µM | GI50 (NCI-H460 lung) 0.414 µM | GI50 (SF-539 CNS) 0.3 µM | GI50 (RXF 393 renal) 0.321 µM | GI50 (SK-OV-3 ovarian) 0.402 µM | GI50 (KM12 colon) 0.418 µM | GI50 (OVCAR-3 ovarian) 0.323 µM | GI50 (CCRF-CEM leukemia) 0.402 µM | GI50 (SK-MEL-2 melanoma) 0.361 µM
inactive: GI50 (BT-549 breast) 0.618 µM | GI50 (HCC-2998 colon) 1.35 µM | GI50 (SN12C renal) 0.853 µM | GI50 (PC-3 prostate) 0.431 µM | GI50 (UO-31 renal) 0.903 µM | GI50 (NCI-H226 lung) 1.43 µM | GI50 (OVCAR-8 ovarian) 1.14 µM | GI50 (MOLT-4 leukemia) 0.51 µM | GI50 (DU-145 prostate) 0.531 µM | GI50 (HOP-62 NSCLC) 0.514 µM | GI50 (IGROV1 ovarian) 0.959 µM | GI50 (OVCAR-5 ovarian) 1.99 µM | GI50 (SK-MEL-5 melanoma) 0.44 µM | GI50 (MDA-MB-231 breast) 1.5 µM | GI50 (EKVX NSCLC) 2.24 µM | GI50 (SNB-19 CNS) 0.578 µM | GI50 (NCI/ADR-RES ovarian) 1.18 µM | GI50 (HS 578T breast) 0.548 µM | GI50 (HCT-116 colon) 0.448 µM | GI50 (TK-10 renal) > 100 µM | GI50 (K-562 leukemia) 0.427 µM | GI50 (HOP-92 NSCLC) 9.69 µM | GI50 (RPMI-8226 leukemia) 0.452 µM | GI50 (UACC-62 melanoma) 0.55 µM | GI50 (ACHN renal) 0.653 µM | GI50 (HCT-15 colon) 0.438 µM | GI50 (SW-620 colon) 0.431 µM | GI50 (A549 NSCLC) 0.969 µM | GI50 (UACC-257 melanoma) > 100 µM | GI50 (OVCAR-4 ovarian) 3.02 µM | GI50 (NCI-H23 lung) 0.977 µM | GI50 (LOX IMVI melanoma) 0.523 µM | GI50 (U251 CNS) 0.446 µM | GI50 (CAKI-1 renal) 0.567 µM | GI50 (786-0 renal) 0.474 µM | GI50 (SF-268 CNS) 0.649 µM
38.3 µM: TGI (SK-MEL-5 melanoma)
1.11 µM: TGI (SF-539 CNS)
2.37 µM: TGI (NCI-H522 lung)
1.48 µM: TGI (OVCAR-3 ovarian)
0.687 µM: TGI (HL-60(TB) leukemia)
